Results taken from patent publication US7384927B2, “Alkylated porphyrins as pesticides acting both in the presence and absence of light” (priority 2003, dated 2008).

Key:
Format in all cases: in vivo
[1] = tested on: Bactrocera oleae (olive fly); assay: Uptake of alkylated porphyrins by flies fed porphyrin-containing bait; conditions: B. oleae
Description: (§1) Porphyrins: • a) meso[tri(N-methyl-pyridyl), mono(N-dodecyl-pyridyl)]porphine (abbr.: C12) • b) meso[tri(N-methyl-pyridyl), mono(N-tetradecyl-pyridyl)]porphine (abbr.: C14) • c) meso[tri(N-methyl-pyridyl), mono(N-octadecyl-pyridyl)]porphine (abbr.: C18) Bait: Aqueous solution containing 10% sucrose and 1% autolysed yeast Flies: • a) Ceratitis capitata (fruit fly) age: 1 week; weight: 5-6 mg • b) Bactrocera oleae (olive fly) age: 10 days; weight: 4-4.5 mg • c) Stomoxis calcitrans (stable fly) age: 10 days; weight: 12 mg Irradiation: • a) High pressure halogen lamp, equipped with infrared and UV filters, emission 360-850 nm, operated at intensities in the 760-2,000 μE s^−1m^−2 range • b) Sunlight, mid June at Padua latitude, average intensity of […] μE s^−1m^−2 with minimum and maximum values of 950 and, respectively, 1,380 μE s^−1m^−2
(§2) An appropriate number of flies (50 flies per each experiment) was caged in 115×55×70 mm Plexiglas cages with several holes (ø=0.5 mm) and starved for 36 h. Then, depending on the protocol to be adopted for each specific experiment, the flies were fed with the bait (10% sucrose and 1% autolysed yeast in neutral aqueous solution), which was either porphyrin-free or added with a predetermined concentration of the porphyrin. These flies were then used in the various experimental sessions.
(§3) At predetermined times, the flies were sacrificed by freezing; the dead flies were then homogenized with a Polytron in 10 ml of a 2% aqueous solution of sodium dodecylsulphate (SDS). The suspension was centrifuged for 10 min at 2,000 rpm, the pellet was discarded and known aliquots of the supernatant were diluted by means of a chloroform/methanol binary mixture (1/2, v/v). The porphyrin concentration was measured by reading the fluorescence emitted at wavelengths above 630 nm and interpolating the emission intensity with a calibration plot obtained with known amounts of the porphyrin. The results were expressed as nanomoles of porphyrin recovered per fly.

[2] = tested on: Ceratitis capitata (fruit fly); assay: as above; conditions: C. capitata
Description: as §1, §2, §3

[3] = tested on: Stomoxis calcitrans (stable fly); assay: as above; conditions: S. calcitrans
Description: as §1, §2, §3

[4] = tested on: Ceratitis capitata flies; assay: Insecticidal action in the dark: fly survival after porphyrin bait; conditions: dark, fed 24 h, survival 12 h after change to porphyrin-free bait
Summary of the method: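 Flies fed porphyrin-containing bait, then switched to porphyrin-free bait; survivors counted 12 h after the switch, in darkness. Control flies received bait without porphyrin (0 μM).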

[5] = tested on: Bactrocera oleae flies; assay: as above; conditions: fed 24 h, survival 12 h after change to porphyrin-free bait
Description: (§4) These flies were then used in the various experimental sessions. […] The number of survivors was evaluated 12 h after switching from administration of a porphyrin-containing bait to a porphyrin-free bait. In none of the experiments was mortality or any apparent toxic effect observed in control flies (flies not fed with porphyrin, see survival at 0 μM porphyrin concentration).

[6] = tested on: Stomoxis calcitrans flies; assay: as above; conditions: fed 24 h, survival 12 h after change to porphyrin-free bait
Description: as §4

[7] = tested on: Ceratitis capitata flies; assay: Photoinsecticidal action: fly survival after bait and visible light irradiation (artificial lamp); conditions: for Survival (% of control untreated flies): survival 10 h after irradiation
Summary of the method: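 Medflies (1 week old, 50 per cage) starved 36 h, then fed 10% sucrose/1% autolysed yeast bait with or without porphyrin. Irradiated 1 h with filtered halogen lamp (360–850 nm) at 1220 μE s^−1m^−2; survival scored 10 h after irradiation, controls given porphyrin-free bait.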

[8] = tested on: Ceratitis capitata flies; assay: Photoinsecticidal action: fly survival after bait and sunlight irradiation; conditions: 3 μM in bait, 12 h after feeding, survival 1 h after irradiation
[9] = exposure time to bait 3 h, porphyrin in bait 1.24 μM
[10] = exposure time to bait 12 h, porphyrin in bait 1.24 μM
[11] = exposure time to bait 24 h, porphyrin in bait 1.24 μM
[12] = porphyrin concentration in bait 0.75 (μmoles), feeding 24 h
[13] = porphyrin concentration in bait 1.25 (μmoles), feeding 24 h
[14] = porphyrin concentration in bait 2.10 (μmoles), feeding 24 h
[15] = porphyrin concentration in bait 3.50 (μmoles), feeding 24 h
[16] = porphyrin concentration in bait 6.00 (μmoles), feeding 24 h

For `CCCCCCCCCCCCCCCCCC[n+]1ccc(-c2c3nc(c(-c4cc[n+](C)cc4)c4ccc([nH]4)c(-c4cc[n+](C)cc4)c4nc(c(-c5cc[n+](C)cc5)c5ccc2[nH]5)C=C4)C=C3)cc1` [C18, meso[tri(N-methyl-pyridyl), mono(N-octadecyl-pyridyl)]porphine], the “Recoveries (nmoles of porphyrin per fly)” value [1, 9] was 1.6 nmoles of porphyrin per fly, the “Recoveries (nmoles of porphyrin per fly)” value [1, 10] was 7.7 nmoles of porphyrin per fly and the “Recoveries (nmoles of porphyrin per fly)” value [1, 11] was 8.9 nmoles of porphyrin per fly. For the same molecule, the “Recoveries (nmoles of porphyrin per fly)” value [1, 12] was 5.2 nmoles of porphyrin per fly, the “Recoveries (nmoles of porphyrin per fly)” value [1, 13] was 8.9 nmoles of porphyrin per fly and the “Recoveries (nmoles of porphyrin per fly)” value [1, 14] was 9.7 nmoles of porphyrin per fly. The “Recoveries (nmoles of porphyrin per fly)” value [1, 15] was 12.0 nmoles of porphyrin per fly, the “Recoveries (nmoles of porphyrin per fly)” value [1, 16] was 12.9 nmoles of porphyrin per fly and the “Recoveries (nmoles of porphyrin per fly)” value [2, 9] was 3.1 nmoles of porphyrin per fly. The “Recoveries (nmoles of porphyrin per fly)” value [2, 10] was 6.6 nmoles of porphyrin per fly, the “Recoveries (nmoles of porphyrin per fly)” value [2, 11] was 7.5 nmoles of porphyrin per fly and the “Recoveries (nmoles of porphyrin per fly)” value [2, 12] was 3.6 nmoles of porphyrin per fly. The “Recoveries (nmoles of porphyrin per fly)” value [2, 13] was 7.5 nmoles of porphyrin per fly, the “Recoveries (nmoles of porphyrin per fly)” value [2, 14] was 8.3 nmoles of porphyrin per fly and the “Recoveries (nmoles of porphyrin per fly)” value [2, 15] was 14.3 nmoles of porphyrin per fly. For the same molecule, the “Recoveries (nmoles of porphyrin per fly)” value [2, 16] was 16.2 nmoles of porphyrin per fly, the “Recoveries (nmoles of porphyrin per fly)” value [3, 9] was 3.2 nmoles of porphyrin per fly and the “Recoveries (nmoles of porphyrin per fly)” value [3, 10] was 8.9 nmoles of porphyrin per fly. The “Recoveries (nmoles of porphyrin per fly)” value [3, 11] was 9.2 nmoles of porphyrin per fly, the “Recoveries (nmoles of porphyrin per fly)” value [3, 12] was 5.9 nmoles of porphyrin per fly and the “Recoveries (nmoles of porphyrin per fly)” value [3, 13] was 9.2 nmoles of porphyrin per fly. The “Recoveries (nmoles of porphyrin per fly)” value [3, 14] was 12.8 nmoles of porphyrin per fly, the “Recoveries (nmoles of porphyrin per fly)” value [3, 15] was 15.7 nmoles of porphyrin per fly and the “Recoveries (nmoles of porphyrin per fly)” value [3, 16] was 15.7 nmoles of porphyrin per fly. The “Survival (% of control untreated flies)” value ([4]; 0.75 μM in bait) was 100 % of control untreated flies, the “Survival (% of control untreated flies)” value ([4]; 1.25 μM in bait) was 42 % of control untreated flies and the “Survival (% of control untreated flies)” value ([4]; 2.10 μM in bait) was 29 % of control untreated flies. For the same molecule, the “Survival (% of control untreated flies)” value ([4]; 3.00 μM in bait) was 12 % of control untreated flies, the “Survival (% of control untreated flies)” value ([4]; 5.00 μM in bait) was 2 % of control untreated flies and the “Survival (% of control untreated flies)” value ([4]; 8.10 μM in bait) was 0 % of control untreated flies. For the same molecule, the “Survival (% of control untreated flies)” value ([5]; 0.75 μM in bait) was 100 % of control untreated flies, the “Survival (% of control untreated flies)” value ([5]; 1.25 μM in bait) was 100 % of control untreated flies and the “Survival (% of control untreated flies)” value ([5]; 2.10 μM in bait) was 53 % of control untreated flies. The “Survival (% of control untreated flies)” value ([5]; 3.00 μM in bait) was 39 % of control untreated flies, the “Survival (% of control untreated flies)” value ([5]; 5.00 μM in bait) was 16 % of control untreated flies and the “Survival (% of control untreated flies)” value ([5]; 8.10 μM in bait) was 3 % of control untreated flies. For the same molecule, the “Survival (% of control untreated flies)” value ([6]; 0.75 μM in bait) was 100 % of control untreated flies, the “Survival (% of control untreated flies)” value ([6]; 1.25 μM in bait) was 79 % of control untreated flies and the “Survival (% of control untreated flies)” value ([6]; 2.10 μM in bait) was 45 % of control untreated flies. The “Survival (% of control untreated flies)” value ([6]; 3.00 μM in bait) was 24 % of control untreated flies, the “Survival (% of control untreated flies)” value ([6]; 5.00 μM in bait) was 10 % of control untreated flies and the “Survival (% of control untreated flies)” value ([6]; 8.10 μM in bait) was 0 % of control untreated flies. The “Survival (% of control untreated flies)” value ([7]; 3 μM in bait 24 h, time interval feeding-irradiation 0 h, irradiation 1 h at 1220 μE s^−1m^−2) was 45 % of control untreated flies, the “Survival (% of control untreated flies)” value ([7]; 3 μM in bait 24 h, time interval feeding-irradiation 12 h, irradiation 1 h at 1220 μE s^−1m^−2) was 52 % of control untreated flies and the “Survival (% of control untreated flies)” value ([7]; 3 μM in bait 24 h, time interval feeding-irradiation 24 h, irradiation 1 h at 1220 μE s^−1m^−2) was 64 % of control untreated flies. The “Survival (% of control untreated flies)” value ([7]; 3 μM in bait 24 h, time interval feeding-irradiation 48 h, irradiation 1 h at 1220 μE s^−1m^−2) was 70 % of control untreated flies, the “Survival (% of control untreated flies)” value ([7]; 3 μM in bait, fluence-rate 760 μE s^−1m^−2, irradiated 24 h after feeding (title)) was 52 % of control untreated flies and the “Survival (% of control untreated flies)” value ([7]; 3 μM in bait, fluence-rate 1220 μE s^−1m^−2, irradiated 24 h after feeding (title)) was 45 % of control untreated flies. The “Survival (% of control untreated flies)” value ([7]; 3 μM in bait, fluence-rate 1500 μE s^−1m^−2, irradiated 24 h after feeding (title)) was 40 % of control untreated flies, the “Survival (% of control untreated flies)” value ([7]; 3 μM in bait, fluence-rate 2000 μE s^−1m^−2, irradiated 24 h after feeding (title)) was 31 % of control untreated flies and the “photoinsecticidal action compared among alkylated porphyrins” value ([7]; irradiation with visible light or sunlight) was “drop in the overall photoactivity”. The “Survival (% of control untreated flies)” value ([8]; sunlight (average 1150 μE s^−1m^−2) 15 min) was 80 % of control untreated flies, the “Survival (% of control untreated flies)” value ([8]; sunlight (average 1150 μE s^−1m^−2) 30 min) was 75 % of control untreated flies and the “Survival (% of control untreated flies)” value ([8]; sunlight (average 1150 μE s^−1m^−2) 45 min) was 61 % of control untreated flies. For the same molecule, the “Survival (% of control untreated flies)” value ([8]; sunlight (average 1150 μE s^−1m^−2) 60 min) was 31 % of control untreated flies.
